Ki data for 15 compounds are collected here from ChEMBL document CHEMBL1139033, “Design, synthesis, and structure-activity relationship of novel thiophene derivatives for beta-amyloid plaque imaging” (Bioorg Med Chem Lett, 2006).

Some results are limits rather than exact numbers.

Sequence of Amyloid-beta precursor protein (P05067 whole entry): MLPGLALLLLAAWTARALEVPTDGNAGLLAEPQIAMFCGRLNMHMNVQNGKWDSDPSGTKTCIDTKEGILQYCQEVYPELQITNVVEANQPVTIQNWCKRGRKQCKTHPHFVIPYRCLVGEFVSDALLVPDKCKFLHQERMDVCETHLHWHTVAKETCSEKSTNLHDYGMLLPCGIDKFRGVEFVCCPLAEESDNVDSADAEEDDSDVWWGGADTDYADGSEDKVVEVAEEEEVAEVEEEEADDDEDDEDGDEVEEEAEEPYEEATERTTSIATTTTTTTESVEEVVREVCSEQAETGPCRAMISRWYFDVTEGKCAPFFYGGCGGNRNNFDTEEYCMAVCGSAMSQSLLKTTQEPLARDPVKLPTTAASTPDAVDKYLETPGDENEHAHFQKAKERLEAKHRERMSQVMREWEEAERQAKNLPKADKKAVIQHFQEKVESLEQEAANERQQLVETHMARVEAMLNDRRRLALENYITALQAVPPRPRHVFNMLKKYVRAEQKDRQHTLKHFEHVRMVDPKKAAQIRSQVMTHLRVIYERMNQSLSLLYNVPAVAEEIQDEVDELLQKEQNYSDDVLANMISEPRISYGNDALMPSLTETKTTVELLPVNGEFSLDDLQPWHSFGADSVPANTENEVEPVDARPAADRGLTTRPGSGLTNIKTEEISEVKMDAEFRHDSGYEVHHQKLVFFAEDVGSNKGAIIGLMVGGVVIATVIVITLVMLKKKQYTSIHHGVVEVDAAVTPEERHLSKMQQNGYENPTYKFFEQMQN

The assay concerns the target Amyloid-beta precursor protein (Homo sapiens, UniProt P05067). Put plainly: Displacement of [125I]IMPY from beta amyloid plaque in brain homogenates. It is filed as tissue-based. (In general: Loss of bound radioactivity is the signal in a displacement assay; it reports binding, not function.)
In the case of `CNc1ccc(-c2ccc(-c3ccc(O)cc3)s2)cc1`, the Ki was 31.2 nM.
Next, `CSc1ccc(-c2ccc(-c3ccc(SC)cc3)s2)cc1`: more than 1000 nM; `Oc1ccc(-c2ccc(-c3ccc(NCCF)cc3)s2)cc1`: 3.9 nM; `Oc1ccc(-c2ccc(-c3ccc(O)cc3)s2)cc1`: 4 nM.
The compound `Nc1ccc(-c2ccc(-c3ccc(N)cc3)s2)cc1` came in with a Ki of 6.1 nM.
Next, `COc1ccc(-c2ccc(-c3ccc(OC)cc3)s2)cc1`: 108 nM.
On to `O=[N+]([O-])c1ccc(-c2ccc(-c3ccc([N+](=O)[O-])cc3)s2)cc1`, for which the affinity corresponds to a Ki of 185 nM.
In the case of `COc1ccc(-c2ccc(-c3ccc([N+](=O)[O-])cc3)s2)cc1`, affinity was put at a Ki of 18.5 nM.
Next, `COc1ccc(-c2ccc(-c3ccc(NCCF)cc3)s2)cc1`: 21.5 nM.
Compound `CN(C)c1ccc(-c2ccc(-c3ccc(O)cc3)s2)cc1` came in with a Ki of 7.5 nM.
The value for `Nc1ccc(-c2ccc(-c3ccc(O)cc3)s2)cc1` was 9.6 nM.
`COc1ccc(-c2ccc(-c3ccc(N)cc3)s2)cc1`: the Ki was 5.6 nM.
As to `COc1ccc(-c2ccc(-c3ccc(O)cc3)s2)cc1`, affinity was put at a Ki of 6.1 nM.
The value for `COc1ccccc1-c1ccc(-c2ccccc2OC)s1` was 625 nM.
Next, `COc1ccc(-c2ccc(-c3ccc(N(C)C)cc3)s2)cc1`: 500 nM.

What is called Ki is a measure of affinity in units of concentration, obtained from inhibition or displacement. High values mean a looser hold on the target, low ones a stronger hold on the target.
